Test results from article PMC2774722 (Clinical cancer research : an official journal of the …, 2009).
“And” between values parts separate entries of the source, which are not always exact repeats. Equal values may be shown once. Read-outs that look alike come from different tables or passages of the source. Values belong to the compound of their own block, whether it stands above or below them.

What was measured:
[1] = ref [39], cited from earlier work
ABCB1 or ABCC2 = settings: mice lacking one or both transporters (ABCB1, ABCC2); ref [40]; cited from earlier work
Abcb1 [2] = settings: brain concentration at 4 h / plasma AUC0-4h; oral sorafenib 40 mg/kg or sunitinib 20 mg/kg
ABCC4 [3] = molecular target: T1, ABCC4 (Homo sapiens, UniProt O15439); assay: Inhibition of ABCC4-mediated PMEA efflux in Saos-2 cells; assay type: cell-based; settings: for Inhibition of PMEA efflux: 20 μM sorafenib or sunitinib, or 50 μM MK571, 4 h, cells overexpressing ABCC4
T1 sequence (O15439 1-1325): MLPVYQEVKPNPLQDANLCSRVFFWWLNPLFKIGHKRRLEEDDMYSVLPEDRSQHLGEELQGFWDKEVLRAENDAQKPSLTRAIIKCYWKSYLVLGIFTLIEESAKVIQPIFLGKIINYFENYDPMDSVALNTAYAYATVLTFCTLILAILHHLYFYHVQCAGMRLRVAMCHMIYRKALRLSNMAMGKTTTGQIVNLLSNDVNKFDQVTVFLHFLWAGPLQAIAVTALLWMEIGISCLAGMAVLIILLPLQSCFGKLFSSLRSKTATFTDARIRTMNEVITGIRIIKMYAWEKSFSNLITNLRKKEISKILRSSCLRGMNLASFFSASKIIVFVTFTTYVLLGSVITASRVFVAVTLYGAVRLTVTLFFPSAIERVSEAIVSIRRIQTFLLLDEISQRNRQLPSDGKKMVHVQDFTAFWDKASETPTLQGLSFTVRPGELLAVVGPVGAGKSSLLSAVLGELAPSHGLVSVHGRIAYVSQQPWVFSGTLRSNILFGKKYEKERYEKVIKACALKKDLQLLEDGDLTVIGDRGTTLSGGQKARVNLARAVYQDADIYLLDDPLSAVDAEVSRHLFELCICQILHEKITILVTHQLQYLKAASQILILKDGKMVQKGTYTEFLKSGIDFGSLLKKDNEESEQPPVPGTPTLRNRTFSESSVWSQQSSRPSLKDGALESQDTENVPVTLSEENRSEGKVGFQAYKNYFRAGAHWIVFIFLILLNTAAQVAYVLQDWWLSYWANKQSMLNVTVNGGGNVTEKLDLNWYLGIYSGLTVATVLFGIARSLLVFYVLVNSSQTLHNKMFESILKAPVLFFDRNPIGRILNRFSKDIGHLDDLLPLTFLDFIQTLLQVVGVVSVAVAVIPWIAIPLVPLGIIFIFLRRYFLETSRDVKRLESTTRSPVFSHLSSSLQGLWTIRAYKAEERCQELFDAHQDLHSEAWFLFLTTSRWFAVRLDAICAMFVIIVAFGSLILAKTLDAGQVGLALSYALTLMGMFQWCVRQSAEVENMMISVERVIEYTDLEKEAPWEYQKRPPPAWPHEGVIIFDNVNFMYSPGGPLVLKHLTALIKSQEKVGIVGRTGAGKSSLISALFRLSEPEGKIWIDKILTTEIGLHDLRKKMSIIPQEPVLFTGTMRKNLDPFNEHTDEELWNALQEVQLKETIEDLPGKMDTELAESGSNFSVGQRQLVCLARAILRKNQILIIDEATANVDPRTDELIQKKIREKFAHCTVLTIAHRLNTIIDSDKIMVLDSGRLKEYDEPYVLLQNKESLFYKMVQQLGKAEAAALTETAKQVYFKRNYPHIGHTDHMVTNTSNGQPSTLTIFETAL

Abcb1 [4] = settings: single oral dose, sorafenib 40 mg/kg or sunitinib 20 mg/kg
ABCC2 [5] = molecular target: T2, ABCC2 (Homo sapiens, UniProt Q92887); assay: Inhibition of ABCC2-mediated docetaxel efflux; assay type: cell-based; settings: for Inhibition of docetaxel efflux: 20 μM sorafenib or sunitinib, or 50 μM MK571, 5 μM docetaxel, 4 h, cells overexpressing ABCC2
ABCG2 [6] = settings: ref [38]; cited from earlier work
ABCB1 [7] = settings: ref [38]; cited from earlier work
[8] = system: OATP1A2, OATP1B1, OATP1B3, OCT1, OAT2, OCTN1 and OCTN2; settings: oocytes or HEK293 cells; sorafenib 0.35-1.5 μM or sunitinib 0.15-0.45 μM, 1 h
OCTN2 = molecular target: T3, OCTN2 (Homo sapiens, UniProt O76082); assay: Uptake in HEK293 cells overexpressing OCTN2; assay type: in vitro ADME; settings: HEK293 cells expressing OCTN2, 1 h
T3 sequence (O76082 1-557): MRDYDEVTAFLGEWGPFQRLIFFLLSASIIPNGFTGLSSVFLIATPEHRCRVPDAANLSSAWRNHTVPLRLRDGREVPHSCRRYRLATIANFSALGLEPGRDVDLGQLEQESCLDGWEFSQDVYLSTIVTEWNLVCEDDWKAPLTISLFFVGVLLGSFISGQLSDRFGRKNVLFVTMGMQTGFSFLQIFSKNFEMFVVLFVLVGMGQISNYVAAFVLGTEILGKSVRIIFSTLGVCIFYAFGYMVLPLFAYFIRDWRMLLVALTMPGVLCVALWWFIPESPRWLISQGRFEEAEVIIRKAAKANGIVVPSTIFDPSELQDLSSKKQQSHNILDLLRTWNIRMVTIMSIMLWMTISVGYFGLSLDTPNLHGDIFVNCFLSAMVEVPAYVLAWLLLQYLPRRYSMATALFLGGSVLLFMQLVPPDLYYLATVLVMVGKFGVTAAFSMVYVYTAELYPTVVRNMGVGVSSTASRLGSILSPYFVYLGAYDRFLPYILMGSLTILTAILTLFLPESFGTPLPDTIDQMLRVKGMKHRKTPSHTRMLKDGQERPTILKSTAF

ABCG2 [9] = molecular target: ABCG2 (Homo sapiens, UniProt Q9UNQ0); settings: 1 μM, 4 h, Saos-2 cells
ABCB1 [10] = molecular target: T4, ABCB1 (Homo sapiens, UniProt P08183); assay: Transcellular transport in LLC-PK1 cells expressing ABCB1; assay type: in vitro ADME; settings: 10 μM, LLC-PK1 cells overexpressing ABCB1
Abcb1 [11] = settings: mice lacking ABCB1; ref [42]; cited from earlier work
CYP3a = settings: CYP3a-/- knockout mice; ref [43]; cited from earlier work
Abcb1 and Abcg2 = settings: mice lacking both Abcb1 and Abcg2; ref [6], [44]; cited from earlier work
[12] = wild-type murine models, cited from earlier work
Abcb1 [13] = settings: Abcb1 knockout mice; ref [6], [44]; cited from earlier work
ABCC2 [14] = molecular target: T2, ABCC2; assay: Accumulation in MDCKII cells overexpressing ABCC2; assay type: in vitro ADME; settings: 1 μM, 4 h
[15] = system: acute myelogenous leukemia; settings: sorafenib with cytarabine/idarubicin, cited from earlier work
[16] = Brain penetration and brain concentration in mice; assay type: in vivo
ABCB1 [17] = molecular target: T4, ABCB1; assay: Inhibition of calcein-AM efflux in LLC-PK1 cells expressing ABCB1; assay type: cell-based
ABCC4 [18] = molecular target: T1, ABCC4; assay: Accumulation in Saos-2 cells overexpressing ABCC4; assay type: in vitro ADME; settings: 1 μM, 4 h
ABCC2 [19] = molecular target: T2, ABCC2; assay: Vanadate sensitive ATPase assay of ABCC2 in membrane vesicles; assay type: biochemical; settings: activation test, 0.14-300 μM, 10 min, concentration dependent
[20] = 38 patients with newly diagnosed AML

T4 sequence (P08183 whole entry): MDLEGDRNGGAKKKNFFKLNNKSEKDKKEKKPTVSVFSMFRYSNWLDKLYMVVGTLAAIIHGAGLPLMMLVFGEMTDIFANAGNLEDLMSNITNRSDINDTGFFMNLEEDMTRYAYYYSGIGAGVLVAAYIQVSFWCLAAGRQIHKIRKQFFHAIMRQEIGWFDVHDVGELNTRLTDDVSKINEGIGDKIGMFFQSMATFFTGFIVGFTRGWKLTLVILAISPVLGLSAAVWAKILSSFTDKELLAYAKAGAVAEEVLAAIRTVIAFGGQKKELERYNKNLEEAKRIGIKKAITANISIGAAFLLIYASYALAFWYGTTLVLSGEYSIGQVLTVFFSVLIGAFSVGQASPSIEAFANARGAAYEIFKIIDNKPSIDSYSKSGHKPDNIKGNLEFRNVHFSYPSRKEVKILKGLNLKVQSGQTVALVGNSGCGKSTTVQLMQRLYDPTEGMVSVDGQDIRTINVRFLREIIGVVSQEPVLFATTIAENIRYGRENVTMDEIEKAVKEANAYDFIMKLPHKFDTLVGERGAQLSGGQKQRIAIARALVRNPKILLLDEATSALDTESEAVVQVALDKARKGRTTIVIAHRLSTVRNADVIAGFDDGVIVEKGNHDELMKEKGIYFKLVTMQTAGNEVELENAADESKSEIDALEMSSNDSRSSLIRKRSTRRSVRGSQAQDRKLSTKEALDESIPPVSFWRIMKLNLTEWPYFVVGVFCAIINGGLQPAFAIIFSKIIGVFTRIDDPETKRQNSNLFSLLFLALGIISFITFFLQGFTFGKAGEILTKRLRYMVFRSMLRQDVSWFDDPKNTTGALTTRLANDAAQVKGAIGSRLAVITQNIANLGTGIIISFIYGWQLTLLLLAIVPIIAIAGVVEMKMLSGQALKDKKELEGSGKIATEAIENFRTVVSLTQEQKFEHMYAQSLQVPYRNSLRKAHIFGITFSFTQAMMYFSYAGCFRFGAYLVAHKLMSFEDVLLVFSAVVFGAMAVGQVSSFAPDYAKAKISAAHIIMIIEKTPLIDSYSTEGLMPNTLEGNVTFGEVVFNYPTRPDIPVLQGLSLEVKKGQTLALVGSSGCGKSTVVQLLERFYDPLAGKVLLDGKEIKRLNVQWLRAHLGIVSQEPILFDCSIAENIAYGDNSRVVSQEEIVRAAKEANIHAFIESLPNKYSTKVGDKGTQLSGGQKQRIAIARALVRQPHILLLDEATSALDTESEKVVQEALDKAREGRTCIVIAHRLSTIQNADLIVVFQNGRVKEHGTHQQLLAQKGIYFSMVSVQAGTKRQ
T2 sequence (Q92887 whole entry): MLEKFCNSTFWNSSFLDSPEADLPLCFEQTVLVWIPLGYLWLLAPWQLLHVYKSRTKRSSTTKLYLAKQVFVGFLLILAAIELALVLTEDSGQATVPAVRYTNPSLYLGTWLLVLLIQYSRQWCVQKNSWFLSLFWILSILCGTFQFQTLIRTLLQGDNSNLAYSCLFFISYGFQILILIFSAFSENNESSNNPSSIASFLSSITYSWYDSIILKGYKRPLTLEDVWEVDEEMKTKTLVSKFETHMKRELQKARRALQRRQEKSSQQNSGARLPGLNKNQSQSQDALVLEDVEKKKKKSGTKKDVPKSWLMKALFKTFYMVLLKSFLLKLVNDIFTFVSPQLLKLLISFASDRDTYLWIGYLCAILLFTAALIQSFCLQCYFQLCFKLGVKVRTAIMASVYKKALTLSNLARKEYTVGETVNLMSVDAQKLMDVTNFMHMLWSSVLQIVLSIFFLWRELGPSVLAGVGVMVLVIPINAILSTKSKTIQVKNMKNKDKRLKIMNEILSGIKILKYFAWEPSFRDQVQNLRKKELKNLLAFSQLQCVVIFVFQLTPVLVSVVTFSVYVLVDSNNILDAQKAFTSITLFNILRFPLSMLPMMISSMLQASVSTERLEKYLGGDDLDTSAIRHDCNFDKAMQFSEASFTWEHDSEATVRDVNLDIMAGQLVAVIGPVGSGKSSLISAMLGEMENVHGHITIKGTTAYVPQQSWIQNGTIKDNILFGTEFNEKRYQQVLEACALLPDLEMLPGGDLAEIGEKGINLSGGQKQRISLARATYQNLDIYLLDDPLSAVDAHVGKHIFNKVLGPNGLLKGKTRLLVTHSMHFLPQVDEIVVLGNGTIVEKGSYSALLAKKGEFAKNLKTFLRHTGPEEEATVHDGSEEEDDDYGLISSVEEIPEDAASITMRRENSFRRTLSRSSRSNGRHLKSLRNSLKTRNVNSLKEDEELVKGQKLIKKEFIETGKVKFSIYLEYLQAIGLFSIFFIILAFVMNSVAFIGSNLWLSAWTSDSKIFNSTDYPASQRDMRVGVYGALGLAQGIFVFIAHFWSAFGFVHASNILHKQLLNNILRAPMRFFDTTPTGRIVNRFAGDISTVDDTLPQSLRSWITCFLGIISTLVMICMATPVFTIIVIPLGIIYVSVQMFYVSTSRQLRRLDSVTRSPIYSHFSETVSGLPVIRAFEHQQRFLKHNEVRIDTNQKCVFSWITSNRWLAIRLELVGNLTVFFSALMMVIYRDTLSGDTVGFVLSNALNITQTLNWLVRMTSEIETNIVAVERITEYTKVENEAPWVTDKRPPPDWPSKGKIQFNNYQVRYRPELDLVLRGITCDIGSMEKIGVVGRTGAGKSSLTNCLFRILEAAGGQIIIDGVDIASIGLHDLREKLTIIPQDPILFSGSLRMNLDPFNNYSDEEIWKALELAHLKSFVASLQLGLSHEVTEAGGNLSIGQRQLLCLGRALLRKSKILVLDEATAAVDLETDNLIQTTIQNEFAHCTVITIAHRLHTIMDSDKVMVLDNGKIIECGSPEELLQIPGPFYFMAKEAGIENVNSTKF
ABCG2 (Homo sapiens, UniProt Q9UNQ0), sequence (Q9UNQ0 whole entry): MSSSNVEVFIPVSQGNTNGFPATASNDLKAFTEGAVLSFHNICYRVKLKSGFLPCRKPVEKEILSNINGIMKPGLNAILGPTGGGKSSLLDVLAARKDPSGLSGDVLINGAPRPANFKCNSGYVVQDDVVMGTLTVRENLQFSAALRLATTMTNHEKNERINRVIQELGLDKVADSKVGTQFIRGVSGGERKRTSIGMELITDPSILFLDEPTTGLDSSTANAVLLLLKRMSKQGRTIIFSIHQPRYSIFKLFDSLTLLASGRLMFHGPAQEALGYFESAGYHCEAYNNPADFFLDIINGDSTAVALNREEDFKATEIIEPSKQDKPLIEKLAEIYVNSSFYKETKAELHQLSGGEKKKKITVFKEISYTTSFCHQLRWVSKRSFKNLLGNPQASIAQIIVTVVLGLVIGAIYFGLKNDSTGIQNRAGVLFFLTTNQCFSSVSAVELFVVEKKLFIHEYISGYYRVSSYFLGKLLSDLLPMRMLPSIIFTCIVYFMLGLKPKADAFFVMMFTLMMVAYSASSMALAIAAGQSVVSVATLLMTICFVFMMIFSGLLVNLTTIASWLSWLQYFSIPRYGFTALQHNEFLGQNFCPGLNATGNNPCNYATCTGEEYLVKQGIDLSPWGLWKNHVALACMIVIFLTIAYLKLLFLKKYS

SMILES: COc1cccc2c1C(=O)c1c(O)c3c(c(O)c1C2=O)C[C@@](O)(C(=O)CO)C[C@@H]3O[C@H]1C[C@H](N)[C@H](O)[C@H](C)O1 [doxorubicin]
Increase in plasma exposure in combination with sorafenib ([1]; phase I trial): 20-30% | Plasma exposure compared to wild-type mice (ABCB1 or ABCC2): unaltered

Increase in brain penetration in knockout animals versus controls (Abcb1 [2]): 2.9 fold | Inhibition of PMEA efflux (ABCC4 [3]): ~80% | Plasma AUC0-4h, wild type versus Abcb1 knockout mice (Abcb1 [4]): not significantly different | Inhibition of docetaxel efflux (ABCC2 [5]): ~80% | Transport over control by OCTN2 (OCTN2): 130% | Transport by ABCG2 (ABCG2 [9]): not transported | Transport by ABCB1 (ABCB1 [10]): substantially reduced
SMILES: CCN(CC)CCNC(=O)c1c(C)[nH]c(/C=C2\C(=O)Nc3ccc(F)cc32)c1C [sunitinib]
Reversal of topotecan resistance mediated by ABCG2 (ABCG2 [6]): completely reverse | Reversal of ABCB1-mediated resistance to romidepsin (ABCB1 [7]): partially reverse | Transport (uptake) by solute carriers compared to control [8]: none of the transporters tested facilitated

SMILES: CCc1c2c(nc3ccc(O)cc13)-c1cc3c(c(=O)n1C2)COC(=O)[C@]3(O)CC [SN-38]
Change in plasma exposure when co-administered with sorafenib [1]: minimal to no increases

Inhibition of PMEA efflux (ABCC4 [3]): ~100% | Inhibition of docetaxel efflux (ABCC2 [5]): approximately 90%
SMILES: CN(C)C(=O)CCSC(SCCC(=O)O)c1cccc(/C=C/c2ccc3ccc(Cl)cc3n2)c1 (stereo not drawn) [MK571]

SMILES: CC(=O)O[C@@]12CO[C@@H]1C[C@H](O)[C@@]1(C)C(=O)[C@H](O)C3=C(C)[C@@H](OC(=O)[C@H](O)[C@@H](NC(=O)OC(C)(C)C)c4ccccc4)C[C@@](O)([C@@H](OC(=O)c4ccccc4)[C@H]21)C3(C)C [docetaxel]
Plasma exposure compared to wild-type mice (Abcb1 [11]): unchanged | Exposure compared to wild-type counterparts (CYP3a): significanty increased

SMILES: Cc1ccc(NC(=O)c2ccc(CN3CCN(C)CC3)cc2)cc1Nc1nccc(-c2cccnc2)n1 [imatinib]
Increase in brain penetration compared to wild-type mice (Abcb1 and Abcg2): 12.6 fold | Brain penetration ([12]; ref [6], [44]): 2-10% | Increase in brain penetration compared to wild-type mice (Abcb1 [13]): 3.6 fold

Transport by ABCC2 (ABCC2 [14]): not transported | Increase in brain penetration in knockout animals versus controls (Abcb1 [2]): 1.9 fold | inhibition at 20 µM (ABCC4 [3]; SAOS-2, read-out: Inhibition of PMEA efflux): ~70% | Plasma AUC0-4h, wild type versus Abcb1 knockout mice (Abcb1 [4]): not significantly different | concentration at 4 h ([16]; FVB, mouse, brain, po, 40 mg/kg): ~300 ng/mL and 645 nM | Brain penetration ([16]; wild-type mice, brain concentration at 4 h / plasma AUC0-4h, oral sorafenib 40 mg/kg or sunitinib 20 mg/kg): 3% | inhibition at 20 µM (ABCC2 [5]; read-out: Inhibition of docetaxel efflux): ~50% | IC50 (ABCB1 [17]): 16.6 µM | Transport by ABCG2 (ABCG2 [9]): not transported | Transport by ABCC4 (ABCC4 [18]): not transported | Effect on baseline ATPase activity of ABCC2 (ABCC2 [19]): inhibited | Transport by ABCB1 (ABCB1 [10]): not transported
SMILES: CNC(=O)c1cc(Oc2ccc(NC(=O)Nc3ccc(Cl)c(C(F)(F)F)c3)cc2)ccn1 [sorafenib]
Overall response rate [15, 20]: 83% | Patients achieving a complete response [15, 20]: 70% | Probability of survival ([15]; at 9 months follow-up): 82% | Remission duration ([15]; at 9 months follow-up): 72% | Transport (uptake) by solute carriers compared to control [8]: none of the transporters tested facilitated

SMILES: Cc1nc(Nc2ncc(C(=O)Nc3c(C)cccc3Cl)s2)cc(N2CCN(CCO)CC2)n1 [dasatinib]
Brain penetration ([12]; ref [45]): 3-8%

SMILES: CCc1c2c(nc3ccc(OC(=O)N4CCC(N5CCCCC5)CC4)cc13)-c1cc3c(c(=O)n1C2)COC(=O)[C@]3(O)CC [irinotecan]
Change in plasma exposure when co-administered with sorafenib [1]: minimal to no increases
